{
  "source": "patent US20260027048A1",
  "about": "“GEMFIBROZIL FORMULATION” (POLARYX THERAPEUTICS, INC., priority 2022, published 2026)",
  "key": {"[1]": {"assay": "Solubility of gemfibrozil in PEG 400 over a concentration range", "type": "physicochemical", "settings": "standing upright at room temperature overnight", "protocol": "A concentrated stock solution of gemfibrozil was prepared in PEG 400. Gemfibrozil was evaluated for its solubility in PEG 400 over concentration range to determine an upper concentration that could be used to prepare a stock solution of gemfibrozil in liquid form. On the day of preparation gemfibrozil was dissolved in the PEG 400 at the indicated concentration. All samples were clear upon mixing. Following mixing, samples were stored standing upright at room temperature overnight."}, "[2]": {"settings": "cited from earlier work"}, "[3]": {"assay": "Solubility testing of gemfibrozil in solvents/cosolvents at 12 mg/ml and 32 mg/ml", "type": "physicochemical", "settings": "tested at 12 and 32 mg/ml", "protocol": "Two doses of gemfibrozil were considered for each solvent/cosolvent. A low dose gemfibrozil preparation: 60 mg gemfibrozil in 5 ml of solvent/cosolvent (12 mg/ml dose), and a high dose gemfibrozil preparation: 160 mg gemfibrozil in 5 mL of solvent/cosolvent (32 mg/ml dose). Table 5 below illustrates that the first six solvent/cosolvents achieved gemfibrozil solubilization at both the 12 mg/ml dose and the 32 mg/ml dose. The solvent/cosolvents included the sodium carbonate/bicarbonate buffer having a pH of 10.5, polyethylene glycol (PEG) 400, glyceryl monolinoleate, propylene glycol dicaprylate/dicaprate, propylene glycol, and glyceryl monooleate.\nThe citrate buffer having a pH of 4.5 with tocopheryl polyethylene glycol succinate (TPGS) achieved gemfibrozil solubilization only the 12 mg/ml dose. The remainder of the solvents/cosolvents were not able to solubilize gemfibrozil at either the low dose or the high dose concentration."}},
  "note": "Read-outs that look alike come from different tables or passages of the source.",
  "data": [
    {"smiles": "Cc1ccc(C)c(OCCCC(C)(C)C(=O)O)c1", "note": "[Gemfibrozil, 5-(2,5-dimethylphenoxy)-2,2-dimethyl-pentanoic acid]", "values": [
      {"measurement": "solubility limit of gemfibrozil in PEG 400", "setting": "[1]", "value": 21.3, "unit": "% w/w"},
      {"measurement": "solubility of gemfibrozil", "setting": "[2]; in DMSO", "value": "~16", "unit": "mg/mL"},
      {"measurement": "solubility of gemfibrozil", "setting": "[2]; in ethanol", "value": "approximately 30 mg/ml"},
      {"measurement": "solubility of gemfibrozil", "setting": "[2]; in water", "value": "approximately 0.03 mg/ml"},
      {"measurement": "Gemfibrozil Solubility", "setting": "[3]; Glycerol and Polysorbate 80", "value": "Not soluble"},
      {"measurement": "Gemfibrozil Solubility", "setting": "[3]; Glyceryl monolinoleate", "value": "Soluble at 12 mg/ml and 32 mg/ml"},
      {"measurement": "Gemfibrozil Solubility", "setting": "[3]; Glyceryl monooleate", "value": "Soluble at 12 mg/ml and 32 mg/ml"},
      {"measurement": "Gemfibrozil Solubility", "setting": "[3]; Polyethylene glycol 400", "value": "Soluble at 12 mg/ml and 32 mg/ml"},
      {"measurement": "Gemfibrozil Solubility", "setting": "[3]; Propylene glycol dicaprylate/dicaprate", "value": "Soluble at 12 mg/ml and 32 mg/ml"},
      {"measurement": "Gemfibrozil Solubility", "setting": "[3]; Propylene glycol", "value": "Soluble at 12 mg/ml and 32 mg/ml"},
      {"measurement": "Gemfibrozil Solubility", "setting": "[3]; Soybean oil", "value": "Not soluble"},
      {"measurement": "Gemfibrozil Solubility", "setting": "[3]; pH 4.5 Citrate buffer and Poloxamer P188", "value": "Not soluble"},
      {"measurement": "Gemfibrozil Solubility", "setting": "[3]; pH 4.5 Citrate buffer and Solutol HS15", "value": "Not soluble"},
      {"measurement": "Gemfibrozil Solubility", "setting": "[3]; pH 4.5 citrate buffer and TPGS", "value": "Soluble at 12 mg/ml"},
      {"measurement": "Gemfibrozil Solubility", "setting": "[3]; pH 10.5 Sodium carbonate/bicarbonate buffer", "value": "Soluble at 12 mg/ml and 32 mg/ml"}
    ]}
  ]
}
